In series [1] the test system is Leishmania donovani promastigotes. Also noted: method as in PMID 30827222. The note with it: ref 23; cited from earlier work.
Series [2] concerns T. cruzi Querétaro strain trypomastigotes. The experiment in a line: In vitro infection of HFF-1 monolayers with trypomastigotes; release of trypomastigotes on the 5th day. The following applies: Trypanosoma cruzi; for IC50: HFF-1, monotherapy, release of trypomastigotes, Queretaro strain, 5th day, read-out: IC50 Monotherapy T. cruzi i.v. Infection. In kind it is cell-based. The text has this: To evaluate the effects of the antidiabetics alone, a model of in vitro infection with trypomastigotes of monolayers of human foreskin fibroblasts 1 (HFF-1) was used as described in the methodology; the criterium to determine efficacy was the ability to decrease the trypomastigotes’ release after the 4th–5th day post-infection. The T. cruzi Querétaro strain (TBAR/MX/0000/Querétaro) was used, which is classified in the Tc1 group, and is characterized by its high degree of virulence.
In 24-well tissue culture plates, 2 × 10^4 HFF-1 cells in 0.5 mL of DMEM + 10% FBS were deposited in each well and incubated at 37 °C for 24 h for adherence. Next, the incubation medium was changed to DMEM + 2% FBS (0.5 mL), and 3 × 10^5 trypomastigotes were added to infect cells for 2 h at 37 °C. After the incubation, the cells were vigorously washed three times with DMEM + 2% FBS to remove uninternalized trypomastigotes, taking care to preserve the monolayer integrity. Then, the infected cells were incubated in DMEM + 2% FBS for 4–5 days in the absence or presence of BNZ (0, 0.05, 0.1, 0.2, 0.5 µM) and antidiabetics (0, 1, 10, 25, 50 µM) in monotherapy; the drug compounds were purchased from SIGMA. For bi-therapy, the same concentrations of BNZ were used in the presence of 0.5 or 1 µM of antidiabetics. […] In every independent assay, a control of infected cells without BNZ or antidiabetics was always included, which served as no treatment. The number of released mobile trypomastigotes on the 5th day was determined by light microscopy using a Neubauer chamber.
(§1) For the IC50 calculation, individual data curves were fitted to the dose–response equation: y=A1+(A2−A1)/(1+10^(logx0−x)×p), where A1 < A2; p > 0; bottom asymptote: A1 = 1; top asymptote: A2 = 2; center: logx0 = −1; hill slope: p = 0.2; or logistic equation y=A2+(A1−A2)/(1+x/x0)^p, where A1 = initial value, A2 = final value, x0 = center and p = power using the Origin 8 Software. The IC50 values were manually selected from the curves fit.

Series [3] relates to T. cruzi epimastigotes. The note with it: cited from earlier work.
The subject of series [4] is Echinococcus granulosus. Also noted: method as in PMID 29190739. The following applies: monotherapy; cited from earlier work.
Series [5] has as its system T. cruzi Ninoa strain. The experiment in a line: Short-term monotherapy in mice infected with T. cruzi; blood trypomastigote count. In kind it is in vivo, CD1 mice. The following applies: single dose 100 mg/kg, intragastric, at peak of parasitemia, 8 h compared to time 0. How it is done:
The effect of the antidiabetic drugs and BNZ in the clearance of blood trypomastigotes in mice infected with T. cruzi in acute drug treatment in monotherapy was evaluated. Trypanosoma cruzi Ninoa strain was used for these experiments; this strain is classified in the Tc1 group like the Querétaro strain [27]; Ninoa is characterized by lower virulence and therefore lower mortality in mice compared to the Querétaro strain [28]. However, epimastigotes of Ninoa strain are more resistant to BNZ [27]. Then, the T. cruzi Ninoa strain seems to be a more appropriate parasitic source to evaluate drug susceptibility in mice.
Mice of the CD1 strain were infected with Ninoa strain (MHOM/MX/1994/Ninoa) following modified protocols previously reported. Briefly, blood trypomastigotes obtained from an infected mouse were diluted with 0.9% saline solution at a density of 1 × 10^5 trypomastigotes/mL, and 0.1 mL were intraperitoneally inoculated in mice weighing 30–40 g. […] After reaching a parasitemia peak of 22 × 10^6 blood trypomastigotes/mL (12–18 days post-inoculation), the mice were separated into 5 groups of 3 mice each for drug treatment (for bioethical requirements, the number of animals used was kept at a minimum, and 3 mice per group was sufficient to perform statistical analysis). BNZ and antidiabetic drugs at a concentration of 100 mg/kg weight; doses of 3.16–3.79 mg (depending on the weight of the mice) were administered, diluted in 0.5 mL of vehicle (Arabic gum at 4%, diluted in purified water) using an intragastric tube. Then, 5 µL of blood were immediately extracted from the caudal vein (t = 0), and blood sampling was performed every 2 h up to 8 h. Trypomastigotes were counted using a modified protocol of that reported by Pizzi–Brenner, as reported before. […] The criterion for evaluating efficacy was the percentage of trypanocidal effect at 8 h compared to time 0.

Series [6] relates to T. cruzi Querétaro strain epimastigotes. The series is described as follows: Thiol metabolites (Cys, GSH, T(SH)2) in epimastigotes by HPLC. In kind it is cell-based, Trypanosoma cruzi. The note with it: 1 µM drug alone, 24 h. How it is done: Since thiol metabolite determination requires high amounts of biological material, the thiol determination content was performed in epimastigotes of the Queretaro strain. A 0.2 L culture of LIT medium was inoculated with epimastigotes at a density of 0.7 × 10^6 parasites/mL. The culture was incubated for 72 h at 28 °C, reaching, at the exponential growth phase, a concentration of 3 × 10^6 parasites/mL. The culture was separated into 8 aliquots of 25 mL, and 1 µM BNZ was added alone or in combination with 1 µM of the antidiabetic drugs. The cultures were incubated for 24 h at 28 °C. Subsequently, 1 mL of each sample was separated for protein determination, and the rest was used for thiol determination. Both samples were centrifuged at 20,817× g for 10 min; the pellets were washed twice with PBS. The pellets for protein were resuspended in 100 µL of Lowry’s solution A (2% Na2CO3, 0.4% NaOH, 0.16% Na-K tartrate, 1% SDS) and stored at −70 °C until protein determination using the Lowry method. The parasite pellets for thiol metabolite determination were immediately lysed by incubation in liquid nitrogen and stored at −70 °C.
Thiol determination was performed as described before. Cell lysates were thawed and resuspended in 90 µL of lysis buffer (20 mM Hepes, 1 mM EDTA, 0.15 mM KCl at pH 7), 20 mM DTT was added to each sample, and three cycles of freezing in liquid nitrogen and thawing at 37 °C were performed. The samples were centrifuged at 20,817× g for 10 min, and the supernatant was reduced with 2% sodium borohydride (NaBH4) and incubated for 10 min on ice. Then, perchloric acid was added at a final concentration of 3%, and the sample was centrifuged at 20,187× g for 2 min. The supernatant was filtered through a syringe-driven filter unit (0.45 µm) (Millipore; Carrigtwohill, County Cork, Ireland) and 20 µL of the eluate was injected in a high-performance liquid chromatography (HPLC) apparatus (Waters; Milford, MA, USA). The metabolites were separated in a C18 reverse-phase column (Altima, Columbia, MD, USA) using a mixture of acetonitrile—0.1% trifluoroacetic acid and a flux of 0.5 mL/min. The thiol metabolites were post-column derivatized with 0.1 mM di-thio-bis nitrobenzoic acid (DTNB), and the absorbance was detected at 412 nm with a UV-Vis detector coupled to the HPLC apparatus.

The test system of series [7] is Leishmania. The note with it: alone; cited from earlier work.
Details of series [8]: method as in PMID 28673423, PMID 32592664, PMID 33043726. The following applies: ref 1, 7, 8; cited from earlier work.
Series [9] concerns HFF-1 cells. The experiment in a line: HFF-1 host cell growth after 5 days (Trypan blue exclusion count). In kind it is cell-based, human. The following applies: for IC50: Homo sapiens, HFF-1, 120 h, monotherapy, HFF-1 growth, 5 days, read-out: IC50 Monotherapy HFF-1 (n = 3). How it is done: For HFF-1 IC50 evaluation, BNZ and the antidiabetic were varied as described above for the infection cultures, and cell proliferation was determined on the 5th day of growth, and the viability was determined by 0.2% Trypan blue exclusion (Corning Inc.; Corning, NY, USA). Briefly, the cells were washed twice with PBS-EDTA and later trypsinized for detachment. The cell suspension was homogenized with 150 µL of DMEM + 2% FBS, and an aliquot of 50 µL was diluted 1:1 with the solution of Trypan blue. The number of viable cells was counted using a Neubauer chamber under a microscope.
as §1

The mark [10] stands for this setting: ref 15, read-out: IC50 on the growth of epimastigotes.

Structures are written as SMILES. Read-outs that look alike come from different tables or passages of the source.

As usually defined, the IC50 is the concentration at which inhibition is half-maximal. `COc1ccc(Cl)cc1C(=O)NCCc1ccc(S(=O)(=O)NC(=O)NC2CCCCC2)cc1` [GBD, glyburide]: the “growth of Leishmania donovani promastigotes” value in [1] is reported as “decreased their growth”. Besides, the half-inhibitory concentration (IC50) in series [2] came out at 8.4 ± 6.3 µM. Further, the half-maximal inhibitory concentration (IC50) in series [3] (setting [10]) was 66 µM. Moreover, the “activity on Echinococcus granulosus infection in mice” value in [4] is on record as “anti-helmintic activity”. Also, in series [5], the “decrease of the infection (blood trypomastigotes)” value (shortened to “decrease of the infection”) was 60%. In series [6], the Cys level entry was “increased”, the GSH level entry is listed as “decreased” and the “T(SH)2 level” value is listed as “decreased”. Further, in [7], the “effect on Leishmania infection” value is recorded as “decreased the infection”.
For `CC1CS(=O)(=O)CCN1/N=C/c1ccc([N+](=O)[O-])o1` (stereo not drawn) [nifurtimox], the “rate of treatment interruption” value in [8] is listed as 14–75%.
For the compound `COc1ccc2c(c1)C(=O)N(CCc1ccc(S(=O)(=O)NC(=O)NC3CCCCC3)cc1)C(=O)C2(C)C` [GLQ, gliquidone], the IC50 in series [2] was determined as 7.6 ± 2 µM. For the same compound, the IC50 in series [3] (setting [10]) is 12 µM. Besides, in series [5], the “decrease of the infection” value is recorded as “lower effect than BNZ”. In addition, in series [6], the Cys level entry was “increased”, the GSH level result is “decreased” and the “T(SH)2 level” value is recorded as “decreased”.
A word on the inhibition: it is the change of the read-out against control, counted positive when it falls. Consider `O=C(Cn1ccnc1[N+](=O)[O-])NCc1ccccc1` [BNZ, benznidazole], for which the “decrease of the growth of host cells” value in [9] (0.26 µM BNZ in monotherapy) is 20%. Besides, the IC50 was 0.9 ± 0.09 µM in series [9]; 0.26 ± 0.01 µM in [2]; 5.54 µM in [3] (CLBrener strain, read-out: IC50 on growth of epimastigotes); 8.21 µM in series [3] (Ninoa strain, read-out: IC50 on growth of epimastigotes); 4.29 µM in series [3] (Querétaro strain, read-out: IC50 on growth of epimastigotes); 12 ± 2 µM in series [3] (ref 25, read-out: IC50 on the growth of epimastigotes). Besides, the IC50 in series [3] (ref 38, read-out: IC50 on the growth of epimastigotes) is 9.4 ± 1.3 µM. In addition, the “rate of treatment interruption” value in [8] is 9–29%. In addition, the inhibition at 0.2 µM in [2] (HFF-1, read-out: inhibition of infection) was determined as 40%. In addition, in series [5], the “decrease of the infection” value was 80%. For the same compound, the Cys level result in [6] is given as “slightly decrease”. The “T(SH)2 level” value in series [6] is listed as “not observed”.
Regarding `Cc1cnc(C(=O)NCCc2ccc(S(=O)(=O)NC(=O)NC3CCCCC3)cc2)cn1` [GPZ, glipizide], the IC50 in [9] amounted to 35 ± 19 µM. Moreover, in series [2], the half-maximal inhibitory concentration (IC50) was 14.3 ± 7 µM. Also, the 50% inhibitory concentration (IC50) in [3] (setting [10]) was 13.4 µM. Further, the “decrease of the infection” value in series [5] stood at 60%. Also, in series [6], the Cys level entry is reported as “decreased”, the “T(SH)2 level” value is given as “increased” and the “decrease in Cys” value is reported as approximately 50%.

(Values after paper PMC11768481 (Pharmaceuticals, 2024).)
